Assay [1] deals with MV4-11 tumors. In words: AML MV4-11 subcutaneous xenograft. The conditions noted are these: G5, 3 mg/kg, QD, PO.
For assay [2], the target named is E3 (CUL4) (Homo sapiens (Human), UniProt Q13619). In words: E3 (CUL4) inhibition (Table 1). The assay is classed as biochemical. On the procedure: (§1) The reaction was incubated for 5 min at 37° C. […] The reaction was incubated for 5 min at room temperature. In the second step (chase), the completed Cdc34b-Ub thiol ester reaction mixture was combined with one third of the completed mono-ubiquitination mixture. The final volume was adjusted to 10 μl with a mix that contained 50 mM Tris-HCl (pH 7.4), 0.5 mM DTT, 0.1 mg/ml of BSA, 5 mM MgCl2, and 2 mM ATP. Compounds were added where indicated. The chase reaction was incubated for 10 min at 37° C. The reaction products were separated by 4-20% SDS-polyacrylamide gel electrophoresis. The reaction scheme was identical to the one described above for FIGS. 12A-B. […] The reaction products, separated by SDS-PAGE, were visualized and analyzed by phospho-imaging using Typhoon 9500 scanner.
Chain of E3 (CUL4) (Q13619 whole entry): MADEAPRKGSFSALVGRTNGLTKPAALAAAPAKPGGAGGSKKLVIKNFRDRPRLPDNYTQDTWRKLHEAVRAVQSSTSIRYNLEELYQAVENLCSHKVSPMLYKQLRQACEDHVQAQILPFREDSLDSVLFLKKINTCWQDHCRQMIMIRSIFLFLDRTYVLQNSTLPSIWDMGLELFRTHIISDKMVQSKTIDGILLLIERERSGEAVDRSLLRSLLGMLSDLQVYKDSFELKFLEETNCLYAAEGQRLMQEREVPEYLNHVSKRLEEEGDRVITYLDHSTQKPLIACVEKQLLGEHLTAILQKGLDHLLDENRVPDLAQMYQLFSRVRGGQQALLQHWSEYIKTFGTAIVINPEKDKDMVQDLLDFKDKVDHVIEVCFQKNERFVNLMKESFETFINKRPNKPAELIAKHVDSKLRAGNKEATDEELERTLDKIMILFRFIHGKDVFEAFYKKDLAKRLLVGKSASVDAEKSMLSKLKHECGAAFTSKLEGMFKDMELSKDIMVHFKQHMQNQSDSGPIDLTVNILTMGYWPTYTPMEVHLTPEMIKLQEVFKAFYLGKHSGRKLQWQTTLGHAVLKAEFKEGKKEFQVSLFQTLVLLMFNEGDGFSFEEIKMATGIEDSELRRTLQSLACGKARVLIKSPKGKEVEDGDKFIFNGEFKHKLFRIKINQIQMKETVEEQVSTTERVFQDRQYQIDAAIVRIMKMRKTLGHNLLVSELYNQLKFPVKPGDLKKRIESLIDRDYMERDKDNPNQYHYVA
Chain of E3 (CUL4) (P62877 whole entry partner): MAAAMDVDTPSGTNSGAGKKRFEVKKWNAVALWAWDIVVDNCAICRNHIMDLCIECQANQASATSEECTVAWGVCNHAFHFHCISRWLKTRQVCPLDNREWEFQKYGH

The target of assay [3] is ROC1-CUL4A (Homo sapiens (Human), UniProt Q13619). The assay can be described thus: 32P-Ub chain elongation by ROC1-CUL4A. The assay is classed as biochemical. More on the design: concentration or dose not given beside the values. The conditions noted are these: relative to KH-4-43. The procedure: as §1
Chain of ROC1-CUL4A (Q13619 39-759): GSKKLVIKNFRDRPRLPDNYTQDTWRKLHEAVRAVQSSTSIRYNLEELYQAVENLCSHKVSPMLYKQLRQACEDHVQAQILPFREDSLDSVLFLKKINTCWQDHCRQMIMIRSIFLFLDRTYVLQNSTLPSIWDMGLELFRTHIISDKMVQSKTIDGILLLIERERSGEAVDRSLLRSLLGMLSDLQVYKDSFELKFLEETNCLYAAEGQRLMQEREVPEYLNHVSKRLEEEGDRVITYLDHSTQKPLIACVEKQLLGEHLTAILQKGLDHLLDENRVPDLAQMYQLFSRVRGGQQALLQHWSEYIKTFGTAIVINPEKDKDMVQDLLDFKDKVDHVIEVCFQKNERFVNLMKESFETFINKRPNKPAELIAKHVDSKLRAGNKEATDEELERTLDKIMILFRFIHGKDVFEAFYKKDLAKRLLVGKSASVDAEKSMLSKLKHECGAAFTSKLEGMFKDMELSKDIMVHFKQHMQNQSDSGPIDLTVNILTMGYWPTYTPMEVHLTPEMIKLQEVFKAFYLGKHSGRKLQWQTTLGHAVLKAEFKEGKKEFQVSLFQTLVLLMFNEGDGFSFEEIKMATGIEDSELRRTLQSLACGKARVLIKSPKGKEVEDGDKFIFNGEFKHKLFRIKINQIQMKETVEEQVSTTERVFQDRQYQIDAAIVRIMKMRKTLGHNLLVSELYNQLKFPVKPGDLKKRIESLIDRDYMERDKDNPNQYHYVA
Chain of ROC1-CUL4A (P62877 15-108 partner): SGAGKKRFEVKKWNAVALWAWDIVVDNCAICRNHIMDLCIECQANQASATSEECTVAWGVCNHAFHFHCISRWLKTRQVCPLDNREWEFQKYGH
Assay [4] has as its target ROC1-CUL4A (full length) (Homo sapiens (Human), UniProt Q13619). In words: Ligand binding by MST. The conditions noted are these: for Kd: read-out: E3 binding ROC1-CUL4A Kd. The procedure: (§2) E3 ligase complex (˜2 nmol) was labeled with fluorescent dye using Monolith NT Protein Labeling Kit Red-NHS (Nanotemper) in the presence of 20 mM MES pH 6.0 and 150 mM NaCl. Excess dye was removed using the included gravity flow column and eluted in storage buffer containing 20 mM Tris-HCl, pH 7.4, 150 mM NaCl, and 10% glycerol. The fluorescent E3 complex (˜0.01-0.06 μM) was mixed with increasing amount of compound in a buffer (20 μl) that contains phosphate-buffered saline, 0.1% TWEEN-20 and 2% prionex. Following incubation at room temperature for 30 min, the reaction mixture loaded into premium coated capillaries and analyzed in the Monolith NT.115 machine (Nanotemper). Thermophoresis was recorded for each sample and binding curve was generated and Kd was calculated using the included software. For reactions where significant ligand specific fluorescence quenching occurred (verified by manufacturer's SDS Denaturation-test protocol), the initial fluorescence quenching data was used directly to calculate the binding curve and Kd.

Assay [5] concerns cancer cells. In words: Apoptosis, Annexin V flow cytometry. The assay is classed as cell-based. Conditions: for induction of apoptosis: at 30 μM. On the procedure: Cells (5×10^4) were seeded 24 hours before compound treatment. Compound was added to the culture media and cells were cultured with the compound for 48 hours. The treated cells were then transferred into 5 ml flow cytometry tubes and the well was washed once with PBS to collect any remaining cells. The cells were then pelleted at 500×g for 5 min with a Beckman CS-6KR centrifuge at 4° C. After removal of supernatant, the cells pellet was washed with Annexin V binding buffer (10 mM Hepes-NaOH, pH 7.4, 150 mM NaCl, 5 mM KCl, 1 mM MgCl2, and 1.8 mM CaCl2). Cells were pelleted once again and incubated in the dark with Annexin V-FITC (2 μg/ml) in binding buffer for 5 min then analyzed using LSRFortessa flow cytometer (BD).
In general terms: In flow cytometry, cells or beads pass a laser one at a time.

The target of assay [6] is T1, ROC1-CUL1 CTD (Homo sapiens (Human), UniProt Q13616). The assay can be described thus: FRET K48 di-Ub synthesis assay. It is filed as biochemical. On the procedure: The high throughput screen (“HTS”) employed the FRET K48 di-Ub assay as established previously (Wu et al., “Suramin Inhibits Cullin-RING E3 Ubiquitin Ligases,” PNAS 113(14):E2011-2018 (2016), which is hereby incorporated by reference in its entirety) and was carried out at Memorial Sloan Kettering Cancer Center Core Screening Facility. For HTS, the assay was formatted using three reagent addition steps. Library compounds, stored in 10 mM stock plates (DMSO), were transferred into assay plates and each well contains a single compound at 100 μM in 1 μl 10% DMSO. The complete complement of proteins/enzymes (6.5 μl), containing Ub E1 (14 nM), E2 Cdc34 (124 nM), E3 ROC1-CUL1 CTD (0.2 μM), Ub C31-I555 (donor, 0.93 μM), and Ub C64-I647 (receptor, 1.62 μM), in the presence of 33 mM Tris-HCl (pH 7.4), 1.7 mM MgCl2, 0.33 mM DTT, and BSA (0.07 mg/ml), was added to each plate. The concentrations of all five proteins have been determined based on Km measurement as described previously (Wu et al., “Suramin Inhibits Cullin-RING E3 Ubiquitin Ligases,” PNAS 113(14):E2011-2018 (2016), which is hereby incorporated by reference in its entirety). To initiate ubiquitination, ATP (2.5 μl in 2.64 mM) was added and its final concentration was 0.66 mM. The concentration of ATP was set high to minimize identification of nucleotide analogues because the priority of the HTS is to find small molecule modulators specific for E3 ROC1-CUL1 CTD. In this setting, the concentration of compound and DMSO in a given well were 10 μM and 1%, respectively. After incubation at room temperature for 45 min, EDTA (30 mM) was added to terminate the reaction. The reaction was quantified based on the ratio of acceptor:donor fluorescence (excitation 515 nm; donor emission 570 nm; acceptor emission 670 nm) using a Victor high-throughput plate reader (Perkin Elmer).
T1 sequence (Q13616 411-776): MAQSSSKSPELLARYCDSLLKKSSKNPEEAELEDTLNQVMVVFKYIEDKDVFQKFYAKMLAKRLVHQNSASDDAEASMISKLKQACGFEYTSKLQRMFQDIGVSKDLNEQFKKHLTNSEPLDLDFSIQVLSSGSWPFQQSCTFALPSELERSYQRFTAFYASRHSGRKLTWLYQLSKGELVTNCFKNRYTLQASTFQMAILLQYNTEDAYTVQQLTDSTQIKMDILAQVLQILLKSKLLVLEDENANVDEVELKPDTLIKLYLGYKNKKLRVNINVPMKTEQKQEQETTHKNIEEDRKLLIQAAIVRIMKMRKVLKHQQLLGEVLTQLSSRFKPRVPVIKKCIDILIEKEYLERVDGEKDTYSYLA
T1 sequence (P62877 whole entry partner): as the sequence (P62877 whole entry partner) above
(§3) The reaction mixture (15 μl) was assembled onto a 384-well microtiter plate. […] ATP (0.66 mM) was then added to the mix followed by a brief centrifugation to settle down the mixture. The resulting plate was incubated at 30° C. in the Synergy-H1 reader and the fluorescence signal was monitored. Ubiquitination was quantified based on the ratio of acceptor:donor fluorescence (excitation 515 nm; donor emission 570 nm, acceptor emission 670 nm).

Assay [7] addresses T1, ROC1-CUL1 CTD. The assay can be described thus: Ligand binding by MST. The procedure: as §2
Assay [8] has as its target E3 (CUL1) (Homo sapiens (Human), UniProt Q13616). In words: E3 (CUL1) inhibition (Table 1). The assay is classed as biochemical. On the procedure: as §3
The mark [9] stands for this setting: Table 5, MST, read-out: E3 binding Kd.
The mark [10] stands for this setting: Table 9, read-out: IC50 (FRET CUL1 assay).
The mark [11] stands for this setting: Table 9, read-out: E3 Binding Kd (MST with CUL1 CTD).

Where two headings read alike, the source gives them in different places. Some results are limits rather than exact numbers.

Experimental findings from patent US20240174649A1, “CULLIN-RING E3 UBIQUITIN LIGASE 4 INHIBITOR COMPOUNDS AND METHODS OF THEIR USE” (ICAHN SCHOOL OF MEDICINE AT MOUNT SINAI, priority 2021, published 2024) are described below.

Chain of ROC1-CUL4A (full length) (Q13619 39-759): as the sequence (Q13619 39-759) above
Chain of ROC1-CUL4A (full length) (P62877 15-108 partner): as the sequence (P62877 15-108 partner) above
Chain of E3 (CUL1) (Q13616 whole entry): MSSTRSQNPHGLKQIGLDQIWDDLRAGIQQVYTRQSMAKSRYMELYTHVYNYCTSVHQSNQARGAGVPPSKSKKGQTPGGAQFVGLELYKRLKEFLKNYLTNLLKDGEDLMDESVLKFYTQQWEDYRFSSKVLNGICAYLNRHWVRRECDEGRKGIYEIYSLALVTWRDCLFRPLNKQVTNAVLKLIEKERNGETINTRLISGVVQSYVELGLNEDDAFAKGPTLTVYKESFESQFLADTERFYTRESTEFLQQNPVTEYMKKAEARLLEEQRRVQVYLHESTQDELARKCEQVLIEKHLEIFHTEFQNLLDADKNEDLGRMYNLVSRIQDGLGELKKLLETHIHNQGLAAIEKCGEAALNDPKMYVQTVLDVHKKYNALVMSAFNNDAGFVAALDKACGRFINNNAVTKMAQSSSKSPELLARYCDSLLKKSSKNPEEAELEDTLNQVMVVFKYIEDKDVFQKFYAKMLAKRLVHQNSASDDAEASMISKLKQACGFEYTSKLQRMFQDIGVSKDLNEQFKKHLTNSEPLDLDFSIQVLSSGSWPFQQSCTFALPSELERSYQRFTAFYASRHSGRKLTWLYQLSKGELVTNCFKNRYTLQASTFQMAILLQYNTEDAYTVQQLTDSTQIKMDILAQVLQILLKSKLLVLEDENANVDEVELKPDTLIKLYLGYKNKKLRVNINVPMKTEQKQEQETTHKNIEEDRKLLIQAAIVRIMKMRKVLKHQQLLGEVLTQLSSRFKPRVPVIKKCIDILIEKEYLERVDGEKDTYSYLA
Chain of E3 (CUL1) (P62877 whole entry partner): as the sequence (P62877 whole entry partner) above

`CNC(=O)c1cc(Oc2ccc(NC(=O)Nc3ccc(Cl)c(C(F)(F)F)c3)cc2)ccn1` [Sorafenib, reference compound] had a tumor inhibition value in assay [1] of 46.02%.
Turning to `COc1c(O)ccc2c(=O)c(-c3cnn(-c4ccccc4)c3)c(C(F)(F)F)oc12` [KH-4-119], in assay [2], the “E3 (CUL4) Inhibition EC50” value is listed as “Inactive”. Moreover, the “E3 CRL4 Relative Inhibition” value in assay [3] is on record as 13%. Besides, the “E3 binding ROC1-CUL4A Kd” value in assay [4] is “no detectable binding activity”. Further, the “Apoptosis EC50” value in assay [5] (Table 1) and in assay [5] (Table 6) was “Inactive” throughout. In addition, the induction of apoptosis result in assay [5] is “unable to induce any detectable level of apoptosis”.
As usually defined, the Kd is the constant that tells how readily two partners part at equilibrium. As a reminder, the EC50 is the concentration that produces a half-maximal response. Consider `CCn1cc(-c2c(C(F)(F)F)oc3c(O)c(O)ccc3c2=O)cn1` [MM-009], for which the “E3 CRL4 Relative Inhibition” value in assay [3] was found to be 0%. For the same molecule, the Kd in assay [4] is more than 400 µM. In assay [5] (Table 6), this molecule displayed a concentration for a half-maximal effect (EC50) of 66 µM.
Broadly, the IC50 is the concentration that gives 50% inhibition. With `Cc1oc2c(O)c(O)ccc2c(=O)c1Oc1ccccc1` [#33-2, 7,8-dihydroxy-2-methyl-3-phenoxy-4H-chromen-4-one], in assay [6], the “drop in IC50 relative to #33” value came to 7 fold. Besides, the IC50 in assay [6] (Table 5, read-out: E3 inhibition IC50) worked out at 8.9 µM. In addition, the “reduction of binding Kd relative to #33” value in assay [7] is given as 8 fold. In addition, the Kd in assay [7] (setting [9]) is 15 µM.
For the molecule `CCCCn1cc(-c2c(C(F)(F)F)oc3c(O)c(O)ccc3c2=O)cn1` [MM-007], the “E3 CRL4 Relative Inhibition” value in assay [3] is listed as 2%. In assay [4], the dissociation constant (Kd) turned out to be 38 µM. The concentration giving a half-maximal response (EC50) in assay [5] (Table 6) was determined as 28 µM.
Turning to `O=c1c(Oc2ccccc2)c(C(F)(F)F)oc2cc(O)ccc12` [#33-7, 7-hydroxy-3-phenoxy-2-(trifluoromethyl)-4H-chromen-4-one], in assay [6] (Table 5), the “E3 inhibition IC50” value is “No inhibition”. Further, in assay [6] (up to 80 μM), the E3 inhibition entry is given as “No inhibition”. In addition, the “reduction of binding Kd relative to #33” value in assay [7] is listed as more than 30 fold. Also, in assay [7] (setting [9]), the Kd worked out at 57 µM.
Take `O=c1c(Oc2ccccc2)c(C(F)(F)F)oc2c(O)c(O)c(Br)cc12` [drawing 256]: the concentration for half-maximal inhibition (IC50) in assay [6] (setting [10]) was found to be 3.1 µM. In addition, the Kd in assay [7] (setting [11]) is 1.89 ± 0.96 µM.
Regarding `COc1ccc2c(=O)c(-c3cnn(-c4ccc(F)cc4)c3)c(C(F)(F)F)oc2c1OC` [KH-3-141], the “E3 (CUL1) Inhibition EC50” value in assay [8] is “Inactive”. For the same molecule, the “E3 (CUL4) Inhibition EC50” value in assay [2] is given as “Inactive”. For the same molecule, in assay [3], the “E3 CRL4 Relative Inhibition” value came to 0%. For the same molecule, the “E3 binding ROC1-CUL4A Kd” value in assay [4] was “No detectable binding”. In addition, the “Apoptosis EC50” value in assay [5] (Table 1) and in assay [5] (Table 6) was “Inactive” each time. The induction of apoptosis result in assay [5] was “unable to induce any detectable level of apoptosis”.
For the molecule `CCCn1cc(-c2c(C(F)(F)F)oc3c(O)c(O)ccc3c2=O)cn1` [MM-008], the “E3 CRL4 Relative Inhibition” value in assay [3] is reported as 0%. Besides, the Kd in assay [4] amounted to 26.4 µM. The EC50 in assay [5] (Table 6) was found to be 38 µM.
As for `O=c1c(Oc2cccc(Br)c2)c(C(F)(F)F)oc2c(O)c(O)ccc12`, the 50% inhibitory concentration (IC50) in assay [6] (setting [10]) turned out to be 2.4 µM. Moreover, the Kd in assay [7] (setting [11]) came out at 1.9 ± 0.28 µM.
